Key:
[1] = system: Normal human fibroblasts [CCD45SK (ATCC CRL 1506)]; test: Response to PDGF: procollagenase production by normal human fibroblasts (Test Example 11); assay type: cell-based; conditions: 1 mM, 6 days, 30 ng/ml PDGF-BB
Procedure: Normal human fibroblasts [CCD45SK (ATCC CRL 1506) as prepared from the skin of a person] were suspended at a cell density of 1×10^5 cells/ml in the MEM medium, comprising 10% (V/V) FBS and 1% (V/V) non-essential amino acids (produced by Dai-Nippon Pharmaceutical Co.). The suspended cells were seeded into each well of a 12-well plate in an amount of 0.8 ml/well (corresponding to 8×10^4 cells/well) and incubated in a saturated aqueous vapor with 5% CO2 at 37° C.

[2] = system: Japanese native, male house rabbits; conditions: rabbit, in vivo
Procedure: Aqueous solutions of N-methyl-L-serine, ethanolamine and N-methylethanolamine that had been adjusted to have a pH 7 with hydrochloric acid were used as test samples.
Using Japanese native, male house rabbits (body weight: about 3 kg), the test samples were tested according to the above-mentioned the Draize method.
Precisely, the back of each rabbit was shaven and rubbed to form a scratched site (scratched skin). An adhesive tape for patch test (1.2×1.6 cm; Ribbon Aid, registered trade mane, produced by River Tape Chemicals Co.) as wetted with 0.1 ml of water, or 0.1 ml of an aqueous 1% (W/V) solution of the test compound was stuck onto the scratched skin and the normal skin. […] In addition, 48 hours after the peeling of the tape, the condition of the skin was also observed.
The scores as referred to in Table 21 were obtained, and the primary stimulation score was calculated according to the following equation.
Primary Stimulation Score=[(A+B)/2]+[(C+D)/2]+[(E+F)/2]+[(G+H)/2]
Next, from the primary stimulation scores, obtained was the degree of stimulation with N-Methyl-L-Serine or Ethanolamine or N-Methylethanolamineaccording to the criteria shown in Table 22 below.

**Q.** For `CN[C@@H](CO)C(=O)O` [Example 1, N-methyl-L-serine], which “Procollagenase Production” value ([1]; mean ± SD, n = 3) is on record?
**A.** 4.2 ± 2.0 unit/ml

**Q.** What about the activity at 1000 µM ([1]; Homo sapiens, Fibroblast, 144 h, control = 100, read-out: Response to PDGF Increment) of the same compound?
**A.** 690%

**Q.** What about the “Primary Stimulation Score” value [2] of the same compound?
**A.** 0

**Q.** And the “stimulation to the skin (in words)” value [2]?
**A.** low

— patent publication US6008188A, “Cytokine potentiator and pharmaceutical formulation for cytokine administration” (Kanebo Limited, priority 1994, dated 1999)
